Data as given in US8889881B2, “Compound having skin-whitening, anti-oxidizing and PPAR activities and medical use therefor” (Pusan National University Industry —University Cooperation …, priority 2011, dated 2014).

What was measured:
[1] = biological target: T1, PPAR gamma-LBD (Homo sapiens, UniProt P37231); test: PPAR assay, PPARγ; type: binding; settings: sample final concentration 100 μM; positive control rosiglitazone; FIGS. 7 and 8
T1 sequence (P37231 238-503 limits assumed): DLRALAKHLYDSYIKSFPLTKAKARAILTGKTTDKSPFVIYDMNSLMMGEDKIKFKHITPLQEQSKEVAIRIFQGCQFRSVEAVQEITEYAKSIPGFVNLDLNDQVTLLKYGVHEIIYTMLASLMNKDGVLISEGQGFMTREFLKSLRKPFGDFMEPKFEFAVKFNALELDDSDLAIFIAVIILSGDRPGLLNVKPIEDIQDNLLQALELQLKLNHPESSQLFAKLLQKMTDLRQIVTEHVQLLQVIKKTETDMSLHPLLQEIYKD

[2] = biological target: T2, PPAR alpha-LBD (Homo sapiens, UniProt Q07869); test: PPAR assay, PPARα; settings: for PPARα activation (competitive activation rate), compared with fenofibrate: sample final concentration 100 μM, positive control fenofibrate, FIGS. 5 and 6; for simultaneous activation of PPARα and PPARγ: summary of the PPARα and PPARγ assays, sample 100 μM
T2 sequence (Q07869 239-466 limits assumed): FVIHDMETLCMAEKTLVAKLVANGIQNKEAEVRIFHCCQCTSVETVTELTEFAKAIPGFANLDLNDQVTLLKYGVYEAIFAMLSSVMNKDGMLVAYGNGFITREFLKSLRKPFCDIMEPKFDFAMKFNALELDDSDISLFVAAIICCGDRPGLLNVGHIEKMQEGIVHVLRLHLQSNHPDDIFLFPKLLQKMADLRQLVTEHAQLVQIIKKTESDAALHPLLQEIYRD

SMILES | melting point [°C] | simultaneous activation of PPARα and PPARγ [2] | PPARγ activation (competitive activation rate), compared with rosiglitazone [1] | PPARα activation (competitive activation rate), compared with fenofibrate [2]
CCOc1cc(-c2nc3cc(C(F)(F)F)ccc3s2)ccc1O [Compound 32, 2-ethoxy-4-(5-(trifluoromethyl)benzo[d]thiazol-2-yl)phenol] | 117 to 117.8 | simultaneously activates PPARα and PPARγ | very excellent PPARγ activation agent compared to rosiglitazone | very excellent PPARα activation agent compared to fenofibrate
COc1cc(-c2nc3cc(C(F)(F)F)ccc3s2)cc(OC)c1O [Compound 40, 2,6-dimethoxy-4-(5-(trifluoromethyl)benzo[d]thiazol-2-yl)phenol] | 220.6 to 222.6 | simultaneously activates PPARα and PPARγ | very excellent PPARγ activation agent compared to rosiglitazone | very excellent PPARα activation agent compared to fenofibrate
O=C(O)c1ccc2[nH]c(-c3ccc(O)cc3O)nc2c1 [Compound 59, 2-(2,4-dihydroxyphenyl)-1H-benzo[d]imidazole-5-carboxylic acid] | > 300 | simultaneously activates PPARα and PPARγ | very excellent PPARγ activation agent compared to rosiglitazone | very excellent PPARα activation agent compared to fenofibrate

More lines, main results first:

melting point [°C] | simultaneous activation of PPARα and PPARγ [2] | SMILES | PPARγ activation (competitive activation rate), compared with rosiglitazone [1] | PPARα activation (competitive activation rate), compared with fenofibrate [2]
264.7 to 265.4 | simultaneously activates PPARα and PPARγ | COc1ccc(-c2nc3cc(C(=O)O)ccc3[nH]2)cc1 [Compound 63, 2-(4-methoxyphenyl)-1H-benzo[d]imidazole-5-carboxylic acid] | very excellent PPARγ activation agent compared to rosiglitazone | very excellent PPARα activation agent compared to fenofibrate
102.1 to 103.4 | simultaneously activates PPARα and PPARγ | CCOc1cc(-c2nc3cc(Cl)ccc3s2)ccc1O [Compound 86, 4-(5-chlorobenzo[d]thiazol-2-yl)-2-ethoxyphenol] | very excellent PPARγ activation agent compared to rosiglitazone | very excellent PPARα activation agent compared to fenofibrate
226 to 228.1 | simultaneously activates PPARα and PPARγ | Oc1ccc(-c2nc3cc(Cl)ccc3s2)cc1Br [Compound 95, 2-bromo-4-(5-chlorobenzo[d]thiazol-2-yl)phenol] | very excellent PPARγ activation agent compared to rosiglitazone | very excellent PPARα activation agent compared to fenofibrate
